Assay results: patent US20110182850A1, “ORGANIC COMPOUNDS AND THEIR USES” (priority 2009, published 2011)
Like-named read-outs stand apart in the source and are kept apart here.

Key:
in vivo = test: in vivo; parameters: species or system Sprague Dawley rats; conditions: rat; for Cmax: po, 10 mg/kg
Protocol: Certain compounds of Table A and Comparative Example 1 (Compound A-7 of copending international patent application serial no. PCT/EP08/063,460) are administered as a solution orally via gavage at 10 mg/kg to Sprague Dawley rats at a dosing volume of 10 ml/kg. Samples are collected via a surgically implanted cannula at selected timepoints deemed necessary to characterize pharmacokinetic parameters. Blood samples are placed on wet ice and spun down to plasma within 5 minutes of timepoint collection. Plasma samples are frozen until bioanalytical analysis.
Certain compounds of Table A and Comparative Example 1 are administered intravenously into a surgically implanted cannula as a solution at 1 mg/kg to Sprague Dawley rats at a dosing volume of […]. Samples are collected via another surgically implanted cannula at selected timepoints deemed necessary to characterize pharmacokinetic parameters. Blood samples are placed on wet ice and spun down to plasma within 5 minutes of timepoint collection. Plasma samples are frozen until bioanalytical analysis.

[1] = biological target: T1, HCV NS3-4A serine protease (full-length NS3-4A protein, genotype 1a, strain HCV-1) (Hepatitis C virus genotype 1a, UniProt P26664); test: HCV NS3-4A protease assay; assay type: biochemical; conditions: Protease IC50
T1 construct: using the full-length NS3-4A protein (genotype 1a, strain HCV-1)
Protocol: The inhibitory activity of certain compounds of Table A against HCV NS3-4A serine protease is determined in a homogenous assay using the full-length NS3-4A protein (genotype 1a, strain HCV-1) and a commercially available internally-quenched fluorogenic peptide substrate as described by Taliani, M., et al. 1996 Anal. Biochem. 240:60-67, which is incorporated by reference in its entirety.

[2] = Measurement of thermodynamic solubility; assay type: physicochemical; conditions: thermodynamic from solid, read-out: solubility in water
Protocol: Thermodynamic solubility for the compounds of the invention listed in Table C is measured by a published literature procedure, e.g., Liping Zhou, et al., J. Pharm. Sci (2007) 96(11): 3052-3071.
The DMSO stocks of test compounds previously dissolved in 25 μL of DMSO (˜10 mM) in mini-prep vial (MPV: Whatman, with PVDF filter and 0.45 μm pore size) chamber were evaporated via a GeneVac HT-4X evaporator for approximately 1 hour, at the guard temperature of 30° C. An aliquot of 250 μL buffer solution (pH 1.0 or 6.8) was added into each MPV chamber containing powders reconstituted from DMSO stock solutions. The MPV filter plungers were pushed down into the chamber until the membrane of the filter plunger slightly touched the surface of the buffer to promote equilibrium between the two compartments and to minimize the adsorption due to non-specific binding of samples during the subsequent 24-hr incubation (at 600 RPM at room temperature). Immediately after the 24-hr incubation, the plungers were further pushed down to the bottom of the chambers. More solution was pushed through the membrane and entered the plunger compartment. The filter/chamber assemblies were then put on a shaker for another 30 minutes at 600 RPM. Afterwards, filtrates were further diluted (1:10) with 50/50 acetonitrile/water solvent followed by a thorough mixing process. Both plates with diluted and undiluted filtrates were analyzed by HPLC and quantified against the four-point standard dilution curve of the same test compound (5 μM, 35 μM, 65 μM and 100 μM, respectively). In the current study, solubility reflects the average of triplicate samples tested at each pH.

[3] = pH 1, simulated gastric fluid, pH of about 1
[4] = pH 6.8, aqueous buffer, pH of about 6.8

T1 sequence (P26664 1658-1711): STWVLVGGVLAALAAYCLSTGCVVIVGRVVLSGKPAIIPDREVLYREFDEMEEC
T1 sequence (P26664 1027-1657): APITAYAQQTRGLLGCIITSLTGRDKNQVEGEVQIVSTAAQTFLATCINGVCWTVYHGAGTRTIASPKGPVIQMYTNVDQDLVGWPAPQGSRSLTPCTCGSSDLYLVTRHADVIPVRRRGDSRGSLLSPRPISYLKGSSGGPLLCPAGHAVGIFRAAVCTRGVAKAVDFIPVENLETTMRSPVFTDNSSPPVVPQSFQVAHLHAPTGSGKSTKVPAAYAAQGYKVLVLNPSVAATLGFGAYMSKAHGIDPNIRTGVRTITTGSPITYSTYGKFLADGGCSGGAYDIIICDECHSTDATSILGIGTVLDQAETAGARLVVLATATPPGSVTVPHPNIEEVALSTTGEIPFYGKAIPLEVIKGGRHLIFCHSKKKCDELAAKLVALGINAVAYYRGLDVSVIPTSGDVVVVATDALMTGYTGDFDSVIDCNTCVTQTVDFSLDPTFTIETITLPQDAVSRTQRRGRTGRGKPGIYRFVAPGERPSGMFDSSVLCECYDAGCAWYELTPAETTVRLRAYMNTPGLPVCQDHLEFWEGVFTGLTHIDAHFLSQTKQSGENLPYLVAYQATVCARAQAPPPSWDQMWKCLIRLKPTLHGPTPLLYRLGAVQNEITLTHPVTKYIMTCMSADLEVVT

Row | bioavailability (in vivo) | Structure (SMILES) | Cmax (in vivo; Sprague Dawley) | IC50 [1] | solubility at 24 h [2, 3] | solubility at 24 h [2, 4] | bioavailability (in vivo; Sprague Dawley)
1 | – | C=C[C@@H]1C[C@]1(NC(=O)[C@@H]1C[C@@]2(CN1C(=O)[C@@H](NC(=O)[C@@H](NC(=O)[C@@H]1CCCCN1C(C)C)C1CCCCC1)C(C)(C)C)C(C)(C)C21CCC1)C(=O)NS(=O)(=O)C1(C)CC1 [Compound 63, (5R,8S)-7-[(2S)-2-{[(2S)-2-cyclohexyl-2-({[(2S)-1-isopropylpiperidin-2-yl]carbonyl}amino)acetyl]amino}-3,3-dimethylbutanoyl]-10,10-dimethyl-N-[(1R,2S)-1-{[(1-methylcyclopropyl)sulfonyl]carbamoyl}-2-vinylcyclopropyl]-7-azadispiro[3.0.4.1]decane-8-carboxamide] | 320 nM | 1.8 nM | ≥ 100 µM | ≥ 30 µM | –
2 | – | C=C[C@@H]1C[C@]1(NC(=O)[C@@H]1C[C@@]2(CN1C(=O)[C@@H](NC(=O)[C@@H](NC(=O)[C@@H]1CCCCN1C(C)C)C1CCCCC1)C(C)(C)C)C(C)(C)C21CCC1)C(=O)NS(=O)(=O)C1(CCC)CC1 [Compound 68, (5R,8S)-7-[(2S)-2-{[(2S)-2-cyclohexyl-2-({[(2S)-1-isopropylpiperidin-2-yl]carbonyl}amino)acetyl]amino}-3,3-dimethylbutanoyl]-10,10-dimethyl-N-[(1R,2S)-1-{[(1-propylcyclopropyl)sulfonyl]carbamoyl}-2-vinylcyclopropyl]-7-azadispiro[3.0.4.1]decane-8-carboxamide] | 348 nM | 4 nM | ≥ 100 µM | ≥ 30 µM | –
3 | – | CC[C@@H]1C[C@]1(NC(=O)[C@@H]1C[C@@]2(CN1C(=O)[C@@H](NC(=O)[C@@H](NC(=O)[C@@H]1CCCCN1C(C)C)C1CCCCC1)C(C)(C)C)C(C)(C)C21CCC1)C(=O)NS(=O)(=O)C1(C)CC1 [Compound 70, (5R,8S)-7-[(2S)-2-{[(2S)-2-cyclohexyl-2-({[(2S)-1-isopropylpiperidin-2-yl]carbonyl}amino)acetyl]amino}-3,3-dimethylbutanoyl]-N-[(1R,2R)-2-ethyl-1-{[(1-methylcyclopropyl)sulfonyl]carbamoyl}cyclopropyl]-10,10-dimethyl-7-azadispiro[3.0.4.1]decane-8-carboxamide] | 130 nM | 2 nM | ≥ 100 µM | ≥ 30 µM | –
4 | – | CCCC1(S(=O)(=O)NC(=O)[C@@]2(NC(=O)[C@@H]3C[C@@]4(CN3C(=O)[C@@H](NC(=O)[C@@H](NC(=O)[C@@H]3CCCN3CC)C3CCCCC3)C(C)(C)C)C(C)(C)C43CCC3)C[C@H]2CC)CC1 [Compound 75, (5R,8S)-7-[(2S)-2-{[(2S)-2-cyclohexyl-2-({[(2S)-1-ethylpyrrolidin-2-yl]carbonyl}amino)acetyl]amino}-3,3-dimethylbutanoyl]-N-[(1R,2R)-2-ethyl-1-{[(1-propylcyclopropyl)sulfonyl]carbamoyl}cyclopropyl]-10,10-dimethyl-7-azadispiro[3.0.4.1]decane-8-carboxamide] | 289 nM | 7 nM | ≥ 100 µM | ≥ 30 µM | –
5 | – | CC[C@@H]1C[C@]1(NC(=O)[C@@H]1C[C@@]2(CN1C(=O)[C@@H](NC(=O)[C@@H](NC(=O)[C@@H]1CCCN1CC)C1CCCCC1)C(C)(C)C)C(C)(C)C21CCC1)C(=O)NS(=O)(=O)C1(C)CC1 [Compound 81, (5R,8S)-7-[(2S)-2-{[(2S)-2-cyclohexyl-2-({[(2S)-1-ethylpyrrolidin-2-yl]carbonyl}amino)acetyl]amino}-3,3-dimethylbutanoyl]-N-[(1R,2R)-2-ethyl-1-{[(1-methylcyclopropyl)sulfonyl]carbamoyl}cyclopropyl]-10,10-dimethyl-7-azadispiro[3.0.4.1]decane-8-carboxamide] | 692 nM | 0.6 nM | ≥ 100 µM | ≥ 30 µM | 22%
6 | – | CC[C@@H]1C[C@]1(NC(=O)[C@@H]1C[C@@]2(CN1C(=O)[C@@H](NC(=O)[C@@H](NC(=O)[C@@H]1CCCN1C(C)C)C1CCCCC1)C(C)(C)C)C(C)(C)C21CCC1)C(=O)NS(=O)(=O)C1(C)CC1 [Compound 82, (5R,8S)-7-[(2S)-2-{[(2S)-2-cyclohexyl-2-({[(2S)-1-isopropylpyrrolidin-2-yl]carbonyl}amino)acetyl]amino}-3,3-dimethylbutanoyl]-N-[(1R,2R)-2-ethyl-1-{[(1-methylcyclopropyl)sulfonyl]carbamoyl}cyclopropyl]-10,10-dimethyl-7-azadispiro[3.0.4.1]decane-8-carboxamide] | – | 2.4 nM | ≥ 100 µM | ≥ 30 µM | –
7 | – | CC[C@@H]1C[C@]1(NC(=O)[C@@H]1C[C@@]2(CN1C(=O)[C@@H](NC(=O)[C@@H](NC(=O)[C@@H]1CCCCN1CC)C1CCCCC1)C(C)(C)C)C(C)(C)C21CCC1)C(=O)NS(=O)(=O)C1(C)CC1 [Compound 83, (5R,8S)-7-[(2S)-2-{[(2S)-2-cyclohexyl-2-({[(2S)-1-ethylpiperidin-2-yl]carbonyl}amino)acetyl]amino}-3,3-dimethylbutanoyl]-N-[(1R,2R)-2-ethyl-1-{[(1-methylcyclopropyl)sulfonyl]carbamoyl}cyclopropyl]-10,10-dimethyl-7-azadispiro[3.0.4.1]decane-8-carboxamide] | 578 nM | 2.5 nM | ≥ 100 µM | ≥ 30 µM | 26%
8 | 2% | C=C[C@@H]1C[C@]1(NC(=O)[C@@H]1C[C@@]2(CN1C(=O)[C@@H](NC(=O)OC(C)(C)C)C(C)C)C(C)(C)C21CCC1)C(=O)NS(=O)(=O)C1CC1 [compound 1, tert-butyl [(1S)-1-{[(5R,8S)-8-({(1R,2S)-1-[(cyclopropylsulfonyl)carba-moyl]-2-vinylcyclopropyl}carbamoyl)-10,10-dimethyl-7-azadispiro[3.0.4.1]dec-7-yl]carbonyl}-2-methylpropyl]carbamate, reference compound] | – | – | – | – | –
